# Columns and labels:
# [1] = system: HCV replicon (subgenomic HCV RNA, NS5a); assay: HCV replicon RNA (Northern blot) and NS5a protein (Western blot) levels in HuH7 replicon cell lines; assay type: cell-based, Hepatitis C virus; settings: for effect like all-trans-retinoic acid (GI-GPx upregulation, reduction of HCV RNA and NS5a): alone or in combination with each other or with selenium or a selenium salt; for reduction of HCV load: replicon cells
# Experimental: The HuH7 pcDNA3 control cells and the replicon cell lines 5-15, 11-7 and 9-13 were plated as described in legend to FIG. 1 and after three days (Day 0) treated for two (Day 2) and four days (Day 4) with 1000U/ml interferon α (IFN-α). Then, cultures were harvested and RNA was prepared. 10 μg of total RNA were used for Northern blot analysis. For detection of GI-GPx (A) Probe 1 was used (see FIG. 1). The membranes were stripped and successively hybridized with probes for PKR (B) and neomycin phosphotransferase (Neo)(C). […]
# (§1) Western blot analysis was performed using an NS5a antibody (FIG. 5). Expression of the transduced GI-GPx cDNA was monitored with a GI-GPx-specific antiserum (FIG. 6).
# (§2) Replicon cells were incubated with alpha interferon (IFN-α) for two and four days. Northern blot analyses were performed with 10 μg total RNA. […] Interferon had no effect on the expression of GI-GPx in mock transfected HuH7 cells (cf FIG. 4).
# (§3) As a model system for HCV replication there were utilized three replicon cell lines provided by Prof. R. Bartenschlager (University of Heidelberg, Germany). Cultures were treated for various periods of time with all trans-retinoic acid (RA) for comparative purposes and the other agents selenium, selenium salts, Vitamin D3 and retinoids, like 9-cis-retinoic acid, C1-C10 alkyl esters of 9-cis-retinoic acid, C1-C10 alkyl amides of 9-cis-retinoic acid, N-(4-hydroxyphenyl) retinamide (4-HPR), 6-[3-(1-adamantyl)-4-hydroxyphenyl]-2-naphthalene carboxylic acid (CD437; AHPN) (obtained from Sigma), paraquat, 4-[E-2-(5,6,7,8-tetrahydro-5,5,8,8-tetramethyl-2-naphthalenyl)-1-propenyl]benzoic acid, 4-hydroxyphenylretinamide, and 4-[(5,6,7,8-tetrahydro-5,5,8,8-tetramethyl-2-naphtalenyl)carboxamido]benzoic acid.
# (§4) Levels of GI-GPx protein expression were measured by Western Blotting using antibodies provided by Prof. Brigelius-Flohe (University of Potsdam, Germany), and RNA levels were measured by Northern blotting using GI-GPx-specific oligonucleotides as probes. Levels of HCV RNA were investigated by Northern Blotting using a DNA oligonucleotide complementary to the neomycin phosphotransferase gene as probe. Concentration of the viral protein NS5a was determined by Western Blotting with an NS5a-specific antibody (Biogenesis, UK).
# GI-GPx [2] = assay: GI-GPx RNA and protein expression in HuH7 replicon cell lines; assay type: cell-based, human
# Experimental: (§5) The HuH7 pcDNA3 control cells and the replicon cell lines 5-15, 11-7 and 9-13 were plated as described in legend to FIG. 1 and after three days (Day 0) treated for two (Day 2) and four days (Day 4) with 1000U/ml interferon α (IFN-α). Then, cultures were harvested and RNA was prepared. 10 μg of total RNA were used for Northern blot analysis. For detection of GI-GPx (A) Probe 1 was used (see FIG. 1). The membranes were stripped and successively hybridized with probes for PKR (B) and neomycin phosphotransferase (Neo)(C).
# as §1
# The x-ray films were densitometrically scanned and the NS5a values compared with untransfected control cells (set as 100%) (FIG. 5) and the GI-GPx values compared with the maximum expression of the transduced GI-GPx cDNA obtained seven days post infection (set as 100%) (FIG. 6).
# as §2, §3, §4
# [3] = system: PKR (double strand RNA-dependent protein kinase); assay: Transcription of PKR in replicon cells; assay type: cell-based, human
# Experimental: as §5
# This fact implies that downregulation of HCV was promoted firstly by activation of the GI-GPx gene on transcriptional level by retinoic acid and secondly by the synthesis of selenoprotein(s) for which sodium selenite was needed. Indeed it could be shown that all-trans-retinoic acid-induced downregulation of HCV is independent of the innate immune response induced by interferon.
# replicon cells = assay: Cytotoxic effects in replicon cells; assay type: cell-based, human
# From the text: As a model system for HCV replication there were utilized three replicon cell lines provided by Prof. R. Bartenschlager (University of Heidelberg, Germany).
# HuH 5-15 replicon cells = assay: Paraquat sensitivity, Alamar Blue viability assay; assay type: cell-based, human; settings: HuH 5-15, 24 hours, three independent experiments
# Experimental: (§6) Cells were plated in 96-well microtiter plates (5×10^3 cells/0.35 cm^2) and after three days treated for 24 hours with the concentration of paraquat depicted. Cell viability was measured utilizing an Alamar-Blue assay and is reflected by relative fluorescence units (RFU) at 405 nm.
# (§7) Replicon cell lines and control cells were incubated for 24 hours with various concentrations of paraquat (methylviologen), and viability of the cultures was measured using the Alamar Blue assay.
# (§8) For quantification of the degree of cell death in cell culture we employed the viability assay based on the reduction of tetrazolium salt to formazan by mitochondrial dehydrogenase activity. The assay was performed in 96-well microtiter plates (Greiner, Frickenhausen, Germany) as described previously (T. Herget et al., 1998, J. Neurochem., 70: 47-58) but Alamar Blue (Roche Molecular Biochemicals, Germany) was used instead of MTT. The light absorbance at 405 nm of the medium including all factors but without cells was determined and subtracted from the absorption readings with cells. Eight wells per sample point were analyzed and each experiment was repeated independently at least three times.
# HuH 9-13 replicon cells = assay: Paraquat sensitivity, Alamar Blue viability assay; assay type: cell-based, human; settings: HuH 9-13, 24 hours, three independent experiments
# Experimental: as §6, §7, §8
# HuH 11-7 replicon cells = assay: Paraquat sensitivity, Alamar Blue viability assay; assay type: cell-based, human; settings: HuH 11-7, 24 hours, three independent experiments
# Experimental: as §6, §7, §8
# HuH pcDNA3 control cells = assay: Paraquat sensitivity, Alamar Blue viability assay; assay type: cell-based, human; settings: 24 hours, three independent experiments
# Experimental: as §6, §7, §8
# GI-GPx [4] = assay: GI-GPx expression in mock transfected HuH7 cells; assay type: cell-based, human
# Experimental: as §5, §2
compound,measurement,setting,value
"CC1=C(/C=C/C(C)=C/C=C/C(C)=C/C(=O)Nc2ccc(O)cc2)C(C)(C)CCC1 [4-HPR, N-(4-hydroxyphenyl) retinamide]","effect like all-trans-retinoic acid (GI-GPx upregulation, reduction of HCV RNA and NS5a)",[1],showed a similar effect
same,reduction of HCV load,[1],capable of reducing HCV load
"CC1(C)CCC(C)(C)c2cc(C(=O)Nc3ccc(C(=O)O)cc3)ccc21 [4-[(5,6,7,8-tetrahydro-5,5,8,8-tetramethyl-2-naphthalenyl)carboxamido]benzoic acid]","effect like all-trans-retinoic acid (GI-GPx upregulation, reduction of HCV RNA and NS5a)",[1],showed a similar effect
same,reduction of HCV load,[1],capable of reducing HCV load
"C/C(=C\c1ccc(C(=O)O)cc1)c1ccc2c(c1)C(C)(C)CCC2(C)C [4-[E-2-(5,6,7,8-tetrahydro-5,5,8,8-tetramethyl-2-naphthalenyl)-1-propenyl]benzoic acid]","effect like all-trans-retinoic acid (GI-GPx upregulation, reduction of HCV RNA and NS5a)",[1],showed a similar effect
same,reduction of HCV load,[1],capable of reducing HCV load
CC1=C(/C=C/C(C)=C\C=C\C(C)=C\C(=O)O)C(C)(C)CCC1 [9-cis retinoic acid],"effect like all-trans-retinoic acid (GI-GPx upregulation, reduction of HCV RNA and NS5a)",[1],showed a similar effect
same,reduction of HCV load,[1],capable of reducing HCV load
CC1=C(/C=C/C(C)=C/C=C/C(C)=C\C(=O)O)C(C)(C)CCC1 [13-cis retinoic acid],"effect like all-trans-retinoic acid (GI-GPx upregulation, reduction of HCV RNA and NS5a)",[1],showed a similar effect
same,reduction of HCV load,[1],capable of reducing HCV load
"O=C(O)c1ccc2cc(-c3ccc(O)c(C45CC6CC(CC(C6)C4)C5)c3)ccc2c1 [CD437, 6-[3-(1-adamantyl)-4-hydroxyphenyl]-2-naphthalene carboxylic acid]","effect like all-trans-retinoic acid (GI-GPx upregulation, reduction of HCV RNA and NS5a)",[1],showed a similar effect
same,reduction of HCV load,[1],capable of reducing HCV load
CC1=C(/C=C/C(C)=C/C=C/C(C)=C/C(=O)O)C(C)(C)CCC1 [all-trans-retinoic acid],downregulation of subgenomic HCV RNA and viral protein NS5a,"[1]; 1 μM, seven days, depending on the cell line",two- to five-fold
same,effect on HCV expression,"[1]; 1 μM, three days",hardly any effect
same,reduction of HCV RNA and HCV NS5a protein,"[1]; six days, in the presence of selenium or a selenium salt like sodium selenite",two-to five-fold
same,"up-regulation of GI-GPx, RNA and protein level","GI-GPx [2]; 1 μM, seven days of incubation",three- to ten-fold
same,effect on GI-GPx expression,"GI-GPx [2]; 1 μM, three days",hardly any effect
same,GI-GPx RNA and protein,GI-GPx [2]; six days,upregulation
same,induction of transcription of PKR,[3],did not induce
same,toxic effects,"replicon cells; six days, in the presence of selenium or a selenium salt",absence of toxic effects
CCOC(=O)/C=C(C)/C=C/C=C(C)/C=C/c1c(C)cc(OC)c(C)c1C [etretinate],"effect like all-trans-retinoic acid (GI-GPx upregulation, reduction of HCV RNA and NS5a)",[1],showed a similar effect
same,reduction of HCV load,[1],capable of reducing HCV load
C[n+]1ccc(-c2cc[n+](C)cc2)cc1 [paraquat],LD50 for paraquat,HuH 5-15 replicon cells,270 ± 75 µM
same,LD50 for paraquat,HuH 9-13 replicon cells,260 ± 50 µM
same,LD50 for paraquat,HuH 11-7 replicon cells,310 ± 65 µM
same,LD50 for paraquat,HuH pcDNA3 control cells,1250 ± 120 µM
same,"effect like all-trans-retinoic acid (GI-GPx upregulation, reduction of HCV RNA and NS5a)",[1],showed a similar effect
same,reduction of HCV load,[1],capable of reducing HCV load
CC1=C(/C=C/C(C)=C/C=C/C(C)=C/C=O)C(C)(C)CCC1 [retinoic acid adlehyde],"effect like all-trans-retinoic acid (GI-GPx upregulation, reduction of HCV RNA and NS5a)",[1],showed a similar effect
same,reduction of HCV load,[1],capable of reducing HCV load
CC1=C(/C=C/C(C)=C/C=C/C(C)=C/CO)C(C)(C)CCC1 [retinol],"effect like all-trans-retinoic acid (GI-GPx upregulation, reduction of HCV RNA and NS5a)",[1],showed a similar effect
same,reduction of HCV load,[1],capable of reducing HCV load
O=[Se](O)O [sodium selenite],severe cytotoxic effects,replicon cells; alone or both in combination,neither observed
IFN-α,GI-GPx expression,GI-GPx [4],no effect
same,HCV-replicon RNA and HCV protein NS5a level,"[1]; 1000 U/ml, two and four days",time- and dose-dependent down-regulation
same,GI-GPx expression,"GI-GPx [2]; replicon cells, within four days of interferon treatment, 1000 U/ml",up-regulated
